According to the NIST ThermoML archive (doi:10.1016/j.jct.2016.01.019):

Assay: refractive index (other wavelength) (dimensionless); xn = mol fraction of the nth substance listed
Details: 94.64 kPa, Liquid, Standard Abbe refractometry

OCCCO [propan-1,3-diol] + CC(O)CO
refractive index
Details	x2 = 0	x2 = 0.0985	x2 = 0.2023	x2 = 0.3015	x2 = 0.3961	x2 = 0.5009	x2 = 0.5961	x2 = 0.6965	x2 = 0.7974	x2 = 0.8985
293.15 K, Wavelength=404.7 nm	1.45177	1.45152	1.45117	1.45077	1.45025	1.44969	1.44909	1.44823	1.44738	1.44618
293.15 K, Wavelength=435.8 nm	1.44842	1.44817	1.44786	1.44741	1.44688	1.44623	1.4456	1.44492	1.44401	1.44315
293.15 K, Wavelength=486.1 nm	1.4444	1.44417	1.44386	1.44341	1.4429	1.44217	1.44132	1.44021	1.43935	1.43821
293.15 K, Wavelength=546.1 nm	1.44112	1.44088	1.44041	1.44013	1.43961	1.43884	1.43806	1.43695	1.4362	1.43491
293.15 K, Wavelength=587.6 nm	1.43939	1.43913	1.43875	1.4384	1.43788	1.43721	1.43623	1.43524	1.43439	1.43321
293.15 K, Wavelength=632.8 nm	1.43781	1.43756	1.43729	1.43683	1.43632	1.43545	1.43467	1.43369	1.43253	1.43168
293.15 K, Wavelength=644 nm	1.43746	1.43722	1.43699	1.43649	1.43597	1.43501	1.43435	1.43334	1.43219	1.43133
293.15 K, Wavelength=706.5 nm	1.43577	1.43555	1.43506	1.43479	1.43428	1.43373	1.43315	1.43207	1.4311	1.42985
298.15 K, Wavelength=404.7 nm	1.45037	1.44979	1.44932	1.4489	1.44849	1.44768	1.44694	1.44595	1.44515	1.44396
298.15 K, Wavelength=435.8 nm	1.447	1.44654	1.44606	1.44553	1.44512	1.44432	1.4436	1.44261	1.44156	1.44059
298.15 K, Wavelength=486.1 nm	1.44301	1.44246	1.44198	1.44156	1.44107	1.44037	1.43963	1.43868	1.43776	1.43667
298.15 K, Wavelength=546.1 nm	1.43975	1.43919	1.43879	1.4383	1.43762	1.43712	1.43618	1.43541	1.43467	1.43341
298.15 K, Wavelength=587.6 nm	1.43802	1.43746	1.437	1.43658	1.43619	1.43539	1.43469	1.43371	1.43285	1.43168
298.15 K, Wavelength=632.8 nm	1.43645	1.4359	1.43532	1.43502	1.43462	1.43383	1.43322	1.43217	1.43136	1.43004
298.15 K, Wavelength=644 nm	1.43611	1.43555	1.43498	1.43455	1.43428	1.43349	1.433	1.43183	1.43102	1.4298
298.15 K, Wavelength=706.5 nm	1.43441	1.43388	1.43335	1.43299	1.4326	1.43191	1.43129	1.43036	1.42924	1.42812
303.15 K, Wavelength=404.7 nm	1.44902	1.44844	1.44795	1.44749	1.44689	1.44619	1.44547	1.44435	1.44351	1.44237
303.15 K, Wavelength=435.8 nm	1.44566	1.44521	1.44451	1.44394	1.44353	1.44285	1.44213	1.44101	1.44017	1.43903
303.15 K, Wavelength=486.1 nm	1.44168	1.44133	1.44074	1.44019	1.43962	1.43892	1.43821	1.43713	1.43628	1.43516
303.15 K, Wavelength=546.1 nm	1.43844	1.43797	1.43739	1.43695	1.43637	1.43567	1.43498	1.43387	1.43316	1.43194
303.15 K, Wavelength=587.6 nm	1.43671	1.43615	1.43575	1.43524	1.43466	1.43396	1.43314	1.43216	1.43125	1.43024
303.15 K, Wavelength=632.8 nm	1.43514	1.4344	1.43386	1.43339	1.43311	1.43232	1.43161	1.43065	1.42981	1.42869
303.15 K, Wavelength=644 nm	1.4348	1.43405	1.43371	1.43304	1.43277	1.43207	1.43136	1.43031	1.42947	1.42834
303.15 K, Wavelength=706.5 nm	1.43312	1.43234	1.43183	1.43136	1.43109	1.4304	1.42989	1.42884	1.428	1.42669
